# Like-named read-outs stand apart in the source and are kept apart here.
# Experiments:
# Format in all cases: cell-based
# [1] = tested on: Enterococcus faecalis clinical isolates; assay: MIC distribution against clinical isolates; conditions: 50 E. faecalis isolates
# Text: (§1) As used herein, “minimum inhibitory concentration” or “MIC” refers to the lowest concentration of an antimicrobial agent, for example, an antimicrobial agent as described herein, required to inhibit the growth of an organism.
# (§2) Many susceptibility testing methods are known in the art and can be used as described herein (see, e.g., Jorgensen and Ferraro (2009) Clinical Infectious Diseases 49:1749-1755; and Maurer et al. (2017) Infectious Disease Reports 9:6839; the entire contents of each of the foregoing are incorporated herein by reference). For example, antimicrobial susceptibility can be determined using conventional culture based methods such as the broth or agar dilution test. In these dilution tests, the bacterial isolate of interest is inoculated onto different media that include serial dilutions of an antimicrobial agent, and incubated under appropriate conditions (e.g., overnight at 37° C.) to allow for growth to occur. Following the incubation period, the media is examined to determine bacterial growth. The lowest concentration of antibiotic that prevents growth represents the minimal inhibitory concentration (MIC). Broth dilution tests can be miniaturized and mechanized allowing for reproducibility and high throughput.
# [2] = tested on: Staphylococcus aureus clinical isolates; assay: MIC distribution against clinical isolates; conditions: 50 S. aureus isolates
# Text: as §1, §2
# [3] = tested on: Streptococcus pyogenes clinical isolates; assay: MIC distribution against clinical isolates; conditions: 19 S. pyogenes isolates
# Text: (§3) As used herein, “minimum inhibitory concentration” or “MIC” refers to the lowest concentration of an antimicrobial agent, for example, an antimicrobial agent as described herein, required to inhibit the growth of an organism. […] “MIC90” represents the MIC value at which ≥90% of the strains within a test population are inhibited; the 90th percentile.
# as §2
# [4] = tested on: Viridans group Streptococci clinical isolates; assay: MIC distribution against clinical isolates; conditions: 15 Viridans group Streptococci isolates
# Text: as §3, §2
# Enterococcus faecalis = assay: Broth microdilution MIC, 50 clinical isolates
# Description: (§4) Minimal inhibitory concentration (MIC) values were determined by broth microdilution or agar dilution in accordance with guidelines from the Clinical and Laboratory Standards Institute (CLSI; (1) “Methods for Dilution Antimicrobial Susceptibility Tests for Bacteria That Grow Aerobically; Approved Standard; 11th ed.” CLSI standard M07-A11, 2018; (2) “Performance Standards for Antimicrobial Susceptibility Testing; Twenty-Eighth Informational Supplement,” CLSI document M100-S28, 2018; and (3) “Methods for Antimicrobial Susceptibility Testing of Anaerobic Bacteria; Approved Standard—Eighth Edition,” CLSI document M11-A8, 2012).
# (§5) Tested aerobically by broth microdilution: • Escherichia coli, n=50 • Klebsiella spp., n=50 • Pseudomonas aeruginosa, n=50 • Streptococcus spp., n=50 • Staphylococcus aureus, n=50 • Enterococcus faecalis, n=50 • Enterobacter aerogenes, n=50 • Proteus mirabilis, n=50
# (§6) Broth microdilution testing of aerobic bacteria was conducted in cation-adjusted Mueller Hinton broth (MHBII). For testing streptococci, lysed horse blood (LHB) was added to MHBII broth at a final concentration of 3%. Where LHB was used, it was added after filtering.
# (§7) Broth microdilution susceptibility testing in 96-well microplates was conducted in accordance with CLSI methods (1) and (2). Automated liquid handlers were used to conduct serial dilutions and liquid transfers, including the Multidrop 384 (Labsystems, Helsinki, Finland), Biomek 2000, and the Biomek FX (Beckman Coulter, Fullerton, Calif.). All wells in columns 2 through 12 of a standard 96-well microdilution plate (Costar 3795) were filled with 150 μL of the appropriate diluent. Then, 300 μL of the test agents were added to the wells of column 1 of the plates at 100× the highest final concentration to be tested. Serial two-fold dilutions were made across the rows through column 11 using the Biomek 2000. The wells of column 12 contained no drug and served as the growth control wells. This plate served as the “mother plate” from which MIC assay plates or “daughter plates” were made.
# (§8) The daughter plates were loaded with 190 μL per well of the appropriate medium using the Multidrop 384. The daughter plates were created using the Biomek FX which transferred 2 μL of drug solution from each well of a mother plate to each corresponding well of the daughter plate in a single step. A standardized inoculum of each test organism was prepared per CLSI methods (1) to equal a 0.5 McFarland standard, followed by a dilution of 1:20 for aerobes and 1:10 for anaerobes. The plates were then inoculated with 10 μL of the diluted inoculum using the Biomek 2000 from low to high drug concentration, resulting in a final concentration of approximately 5×10^5 CFU/mL per well. An un-inoculated plate was incubated in parallel for each medium for the purpose of assessing solubility of the drug in the test media.
# (§9) Inoculated plates were stacked 3 or 4 high, covered with a sterile lid on the top plate, placed into boxes with CO2 planchets (streptococci) or plastic bags (all other isolates). Plates were incubated at 35° C. for 16-24 hr in ambient air for aerobes or for 42-48 hr in the anaerobic environment of the Bactron II anaerobe chamber (Sheldon Manufacturing Co.; Cornelius, Oreg.). Following incubation, the microplates were removed from the incubator and viewed from the bottom using a plate viewer. The MIC values were read and recorded as the lowest concentration of drug that inhibited visible growth of the organism as per CLSI methods (1) and (2).
# Staphylococcus aureus = assay: Broth microdilution MIC, 50 clinical isolates (28 MRSA)
# Description: as §4, §5, §6, §7, §8, §9
# [5] = tested on: Viridans group Streptococcus; assay: Broth microdilution MIC, 15 clinical isolates
# Description: as §4, §5, §6, §7, §8, §9
# [6] = 15 Viridans group Streptococci clinical isolates
smiles,measurement,setting,value
C[C@@H](O)[C@H]1C(=O)N2C(C(=O)O)=C(S[C@@H]3CN[C@H](C(=O)N(C)C)C3)[C@H](C)[C@H]12 [meropenem],Cumulative percentage of isolates inhibited at MIC,[1]; MIC 0.5 μg/mL,2.0%
same,Number of test isolates at MIC,[1]; MIC 0.5 μg/mL,1
same,Cumulative percentage of isolates inhibited at MIC,[1]; MIC 1 μg/mL,8.0%
same,Number of test isolates at MIC,[1]; MIC 1 μg/mL,3
same,Cumulative percentage of isolates inhibited at MIC,[1]; MIC 2 μg/mL,24.0%
same,Number of test isolates at MIC,[1]; MIC 2 μg/mL,8
same,Cumulative percentage of isolates inhibited at MIC,[1]; MIC 4 μg/mL,72.0%
same,Number of test isolates at MIC,[1]; MIC 4 μg/mL,24
same,Cumulative percentage of isolates inhibited at MIC,[1]; MIC 8 μg/mL,96.0%
same,Number of test isolates at MIC,[1]; MIC 8 μg/mL,12
same,Cumulative percentage of isolates inhibited at MIC,[1]; MIC 16 μg/mL,98.0%
same,Number of test isolates at MIC,[1]; MIC 16 μg/mL,1
same,Cumulative percentage of isolates inhibited at MIC,[1]; MIC >16 μg/mL,100.0%
same,Number of test isolates at MIC,[1]; MIC >16 μg/mL,1
same,Cumulative percentage of isolates inhibited at MIC,[2]; MIC 0.06 μg/mL,12.0%
same,Number of test isolates at MIC,[2]; MIC 0.06 μg/mL,6
same,Cumulative percentage of isolates inhibited at MIC,[2]; MIC 0.5 μg/mL,46.0%
same,Number of test isolates at MIC,[2]; MIC 0.5 μg/mL,1
same,Cumulative percentage of isolates inhibited at MIC,[2]; MIC 1 μg/mL,52.0%
same,Number of test isolates at MIC,[2]; MIC 1 μg/mL,3
same,Cumulative percentage of isolates inhibited at MIC,[2]; MIC 2 μg/mL,56.0%
same,Number of test isolates at MIC,[2]; MIC 2 μg/mL,2
same,Cumulative percentage of isolates inhibited at MIC,[2]; MIC 4 μg/mL,78.0%
same,Number of test isolates at MIC,[2]; MIC 4 μg/mL,11
same,Cumulative percentage of isolates inhibited at MIC,[2]; MIC 8 μg/mL,94.0%
same,Number of test isolates at MIC,[2]; MIC 8 μg/mL,8
same,Cumulative percentage of isolates inhibited at MIC,[2]; MIC 16 μg/mL,96.0%
same,Number of test isolates at MIC,[2]; MIC 16 μg/mL,1
same,Cumulative percentage of isolates inhibited at MIC,[2]; MIC >16 μg/mL,100.0%
same,Number of test isolates at MIC,[2]; MIC >16 μg/mL,2
same,Cumulative percentage of isolates inhibited at MIC,[3]; MIC 0.004 μg/mL,78.9%
same,Number of test isolates at MIC,[3]; MIC 0.004 μg/mL,14
same,Cumulative percentage of isolates inhibited at MIC,[3]; MIC 0.008 μg/mL,94.7%
same,Number of test isolates at MIC,[3]; MIC 0.008 μg/mL,3
same,Cumulative percentage of isolates inhibited at MIC,[3]; MIC 0.03 μg/mL,100.0%
same,Number of test isolates at MIC,[3]; MIC 0.03 μg/mL,1
same,Cumulative percentage of isolates inhibited at MIC,[3]; MIC ≤0.002 μg/mL,5.3%
same,Number of test isolates at MIC,[3]; MIC ≤0.002 μg/mL,1
same,Cumulative percentage of isolates inhibited at MIC,[4]; MIC 0.004 μg/mL,6.7%
same,Number of test isolates at MIC,[4]; MIC 0.004 μg/mL,1
same,Cumulative percentage of isolates inhibited at MIC,[4]; MIC 0.008 μg/mL,26.7%
same,Number of test isolates at MIC,[4]; MIC 0.008 μg/mL,3
same,Cumulative percentage of isolates inhibited at MIC,[4]; MIC 0.015 μg/mL,60.0%
same,Number of test isolates at MIC,[4]; MIC 0.015 μg/mL,5
same,Cumulative percentage of isolates inhibited at MIC,[4]; MIC 0.03 μg/mL,80.0%
same,Number of test isolates at MIC,[4]; MIC 0.03 μg/mL,3
same,Cumulative percentage of isolates inhibited at MIC,[4]; MIC 0.5 μg/mL,100.0%
same,Number of test isolates at MIC,[4]; MIC 0.5 μg/mL,2
same,Cumulative percentage of isolates inhibited at MIC,[4]; MIC […],86.7%
same,Number of test isolates at MIC,[4]; MIC […],1
same,Mode,Enterococcus faecalis,4 µg/mL
same,MIC50,"Enterococcus faecalis; Enterococcus faecalis, read-out: MIC50",4 µg/mL
same,MIC90,"Enterococcus faecalis; Enterococcus faecalis, read-out: MIC90",8 µg/mL
same,Mode,Staphylococcus aureus,0.12 µg/mL
same,MIC50,"Staphylococcus aureus; Staphylococcus aureus, read-out: MIC50",1 µg/mL
same,MIC90,"Staphylococcus aureus; Staphylococcus aureus, read-out: MIC90",8 µg/mL
same,MIC50,[5]; [6],0.015 µg/mL
same,MIC90,[5]; [6],0.5 µg/mL
same,MIC range,[5]; [6],0.004 to 0.5 µg/mL
same,% S,"[5]; 15 Viridans group Streptococci clinical isolates, MXF by FDA breakpoints",100%
same,MIC50,"[5]; Streptococcus, read-out: MIC50",0.015 µg/mL
same,MIC90,"[5]; Streptococcus, read-out: MIC90",0.5 µg/mL
same,Mode,"[5]; modal MIC, 15 Viridans group Streptococci clinical isolates",0.015 µg/mL
